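Dose response: 5 concentrations. Exposure: 48 h. Format: 96-well plates. Endpoint: linear interpolation; highest concentration if not reached. Here, GI50 denotes the concentration required for 50% inhibition of growth.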 Active and inactive are the calls of the source. Cut-off read from the data, not from the text of the source: active = GI50 up to about 1.1 µM and inactive = higher. Where a SMILES comes first, the peptide text is derived from it. The star is where a group is joined. Boc = CC(C)(C)OC(=O)*
What was measured:
Test in all cases: growth of human tumour cells (NCI), 48 h
[1] = system: SK-MEL-28
[2] = system: TK-10
[3] = system: SNB-19
[4] = system: EKVX
[5] = system: CCRF-CEM
[6] = system: MDA-MB-435
[7] = system: CAKI-1
[8] = system: IGROV-1
[9] = system: HT-29
[10] = system: OVCAR-4
[11] = system: M14
[12] = system: MCF7
[13] = system: UACC-257
[14] = system: UO-31
[15] = system: A549
[16] = system: T47D
[17] = system: HL-60
[18] = system: HCC 2998
[19] = system: K562
[20] = system: UACC-62
[21] = system: OVCAR-3
[22] = system: HOP-92
[23] = system: RPMI-8226
[24] = system: SK-MEL-5
[25] = system: OVCAR-5
[26] = system: LOX IMVI
[27] = system: SR
[28] = system: BT-549
[29] = system: RXF 393
[30] = system: 786-0
[31] = system: OVCAR-8
[32] = system: SW-620
[33] = system: MDA-MB-231
[34] = system: U-251
[35] = system: KM12
[36] = system: ACHN
[37] = system: SF-295
[38] = system: PC-3
[39] = system: COLO 205
[40] = system: MOLT-4
[41] = system: HOP-62
[42] = system: SF-268
[43] = system: SK-OV-3
[44] = system: SN12C
[45] = system: HCT-116
[46] = system: MDA-N
[47] = system: DU-145
[48] = system: SF-539
[49] = system: NCI-H460
[50] = system: SK-MEL-2
[51] = system: SNB-75
[52] = system: Hs-578T
[53] = system: NCI/ADR-RES
[54] = system: HCT-15
[55] = system: NCI-H23
[56] = system: Malme-3M
[57] = system: NCI-H226
[58] = system: NCI-H522
[59] = system: A498

Measured: GI50

Cc1cc2nc(N3C(=O)/C(=C/c4ccc(N(C)C)cc4)N=C3c3ccccc3)sc2cc1C
32.5 µM: [54]
active: [12] 0.515 µM
inactive: [1] 51.9 µM | [2] 58.9 µM | [3] 54.6 µM | [4] 23 µM | [5] 11.3 µM | [6] 7.46 µM | [7] 43.9 µM | [8] 16.3 µM | [9] 18.5 µM | [10] 29.4 µM | [11] 26.7 µM | [13] 27.2 µM | [14] 24.2 µM | [15] 33.2 µM | [16] 31.4 µM | [17] 16.9 µM | [18] 18.9 µM | [19] 25.9 µM | [20] 20.3 µM | [21] 41.5 µM | [22] 15.2 µM | [23] 23.8 µM | [24] 15.2 µM | [25] 22.9 µM | [26] 30.1 µM | [27] 6.05 µM | [28] 44.5 µM | [29] 18.5 µM | [30] 20.5 µM | [31] 32.3 µM | [32] 24.7 µM | [33] 26 µM | [34] 32.7 µM | [35] 26 µM | [36] 19.9 µM | [37] 33.6 µM | [38] 15.9 µM | [39] 18 µM | [40] 1.14 µM | [41] > 100 µM | [42] 40 µM | [43] > 100 µM | [44] 18.7 µM | [45] 17 µM | [46] 11.6 µM | [47] 50.4 µM | [48] 22.2 µM | [49] 23 µM | [50] 24.1 µM | [51] 22.9 µM | [52] 30.3 µM | [53] 28.6 µM

COc1ccc(C[C@H]2COC(=O)[C@@H]2Cc2cc(OC)c(OC)c(OC)c2)cc1OC
> 100 µM: [54]
inactive: [1] 98.2 µM | [2] > 100 µM | [3] > 100 µM | [4] > 65.8 µM | [5] 48.2 µM | [6] > 81.1 µM | [7] > 100 µM | [8] > 94.6 µM | [9] > 100 µM | [10] > 61.7 µM | [11] 90.4 µM | [55] 99.3 µM | [12] > 64 µM | [13] > 75 µM | [14] 43.6 µM | [15] > 100 µM | [16] 17.9 µM | [18] > 81.7 µM | [19] 77.8 µM | [20] 72.1 µM | [21] > 89.1 µM | [22] 16 µM | [23] 17.1 µM | [24] 26.2 µM | [25] > 100 µM | [26] > 74.1 µM | [27] 5.9 µM | [28] 32 µM | [29] > 54.5 µM | [30] > 100 µM | [31] 50.1 µM | [32] > 100 µM | [33] > 87.3 µM | [34] > 100 µM | [35] > 70.3 µM | [36] > 100 µM | [56] > 100 µM | [37] > 100 µM | [38] 42 µM | [39] > 100 µM | [40] 32.4 µM | [41] > 100 µM | [42] > 100 µM | [57] > 34.4 µM | [43] > 100 µM | [44] > 100 µM | [45] > 87.9 µM | [46] 78.7 µM | [47] > 100 µM | [48] > 100 µM | [58] > 68.7 µM | [49] > 100 µM | [50] > 88.3 µM | [51] > 67.8 µM | [52] 38 µM | [53] 41.1 µM

COC(=O)CNC(=O)C(Cc1ccccc1)NC(=O)C(CCSC)NC(=O)C(Cc1ccc(O)cc1)NC(=O)OC(C)(C)C (stereo not drawn) (Boc-YMFG-OMe; configuration not given here)
> 100 µM: [54]
inactive: [1] 18.2 µM | [2] > 100 µM | [3] 37.8 µM | [6] > 100 µM | [7] > 100 µM | [8] 62.7 µM | [9] 33 µM | [10] > 100 µM | [11] > 100 µM | [55] 56.1 µM | [12] 41.8 µM | [13] 19.1 µM | [14] > 100 µM | [15] > 100 µM | [16] 32.4 µM | [17] 53 µM | [18] 23.2 µM | [19] 49.8 µM | [20] 30.1 µM | [21] 16.9 µM | [22] 26.4 µM | [23] 22.3 µM | [24] > 100 µM | [59] > 100 µM | [25] > 100 µM | [26] 18.5 µM | [28] 35.3 µM | [29] 47.6 µM | [30] > 100 µM | [31] 39.9 µM | [32] 40.3 µM | [33] 24.5 µM | [34] 41.6 µM | [35] > 100 µM | [36] > 100 µM | [56] > 100 µM | [37] > 100 µM | [38] > 100 µM | [39] 79.3 µM | [40] 17.5 µM | [41] 31.5 µM | [42] 29.7 µM | [57] > 100 µM | [43] > 100 µM | [44] 45.3 µM | [45] 54.3 µM | [46] 33.3 µM | [47] > 100 µM | [48] > 100 µM | [58] 19.4 µM | [49] > 100 µM | [50] 18.1 µM | [51] > 100 µM | [52] > 100 µM | [53] > 100 µM

O=C(O)CN(CCNC(=O)OCC1c2ccccc2-c2ccccc21)CCNC(=O)OCC1c2ccccc2-c2ccccc21
inactive: [1] 25 µM | [2] 29.1 µM | [3] 29.6 µM | [4] 23.7 µM | [5] 24.5 µM | [6] 19.1 µM | [8] 20.6 µM | [9] 17.5 µM | [10] 27.1 µM | [11] 28.8 µM | [55] 24.8 µM | [12] 18 µM | [13] 29.2 µM | [14] 22.1 µM | [15] 23.3 µM | [16] 20.1 µM | [17] 24.6 µM | [18] 35.6 µM | [19] 19 µM | [20] 23.7 µM | [21] 18.1 µM | [22] 22.1 µM | [23] 25.4 µM | [24] 19.6 µM | [25] 33.3 µM | [26] 18.1 µM | [27] 24.9 µM | [28] 27.2 µM | [29] 36.1 µM | [30] 20.1 µM | [31] 20.1 µM | [32] 21.2 µM | [33] 17.4 µM | [34] 20.1 µM | [35] 18.6 µM | [36] 20.6 µM | [56] 22.3 µM | [37] 25 µM | [38] 24 µM | [39] 20.8 µM | [40] 23.4 µM | [41] 21.3 µM | [42] 19 µM | [57] 33.3 µM | [43] 32.2 µM | [44] 25 µM | [45] 17.7 µM | [46] 20 µM | [47] 19.9 µM | [48] 25.4 µM | [58] 17.2 µM | [49] 19.2 µM | [50] 22.9 µM | [51] 29.6 µM | [52] 43.9 µM | [53] 45.2 µM
27.2 µM: [54]

Cc1c(OCc2ccccc2)c(=O)ccn1CCc1c[nH]c2ccccc12
74.8 µM: [54]
inactive: [2] 40.6 µM | [3] 32.7 µM | [4] 41.3 µM | [5] 40.7 µM | [6] 20 µM | [8] 26.6 µM | [9] 23.3 µM | [11] 30 µM | [55] 37.6 µM | [12] 18.5 µM | [13] 73.8 µM | [14] 43.1 µM | [15] 36.6 µM | [16] 17.3 µM | [20] 27.4 µM | [21] 18.5 µM | [22] 14.4 µM | [23] 31.9 µM | [24] 18.3 µM | [25] 65.9 µM | [26] 44.6 µM | [27] 27.6 µM | [28] 44.6 µM | [30] 33.9 µM | [31] 53 µM | [32] 36.1 µM | [33] 34.1 µM | [34] 29.6 µM | [35] 33.7 µM | [36] > 100 µM | [56] 22.1 µM | [37] 56.4 µM | [38] 30.9 µM | [39] 16.4 µM | [40] 1.9 µM | [41] > 100 µM | [42] 19.2 µM | [43] > 100 µM | [44] 45.6 µM | [45] 38.3 µM | [46] 28.7 µM | [47] 25.9 µM | [48] 43.4 µM | [58] 21.3 µM | [49] 33.7 µM | [50] 19 µM | [52] 27.2 µM | [53] 86.7 µM
